Test results taken from patent publication US20150335678A1, “METHOD OF ACTIVATING STEM CELLS IN AN ANIMAL AND THE USE OF CHLORINE DIOXIDE FOR PREPARING MEDICINES FOR ACTIVATING STEM CELLS IN AN ANIMAL” (priority 2012, published 2015).
Marks after values point to notes of the source that are not given here.

Key:
[1] = system: chronic eczema; experiment: Chronic eczema patients, topical solution (Example 7); format: in vivo, human
Description: The subjects consisted of 12 patients with chronic eczema and average seven years of course of disease. External used medicines and oral administration, such as glucocorticoid and antihistamine drug were used discontinuously, but were poor in treatment. Activating agent was administered according to the following methods:
To smear solution over the affected parts immediately, once a day for consecutive 10 to 15 days, and then stop administration. If the eczema relapsed, reusing it again.

[2] = system: GFAP-positive cells (astrocytes), NeuN-positive cells (immature neurons); experiment: NeuN-positive, GFAP-positive and BrdU-positive/GFAP-positive cells in the SVZ region; format: in vivo, Sprague-Dawley rats
Description: (§1) Male Sprague-Dawley rats with the age of 12 weeks and weight of 250^˜280 g were used in the experiment after acclimating for a week.
(§2) A middle cerebral artery occlusion model was first established in compliance with the method of Longa E Z et al. (Longa E Z, et al. Reversible middle cerebral artery occlusion without craniectomy in rats. Stroke 20:84-91, 1989). More specifically, 0.36 g/kg of 10% chloral hydrate was administered intraperitoneally to rats which had been fasted for 12 hours (although given free access to water) to anesthetize the rats. Next, a midline incision was made in the neck to expose the right common carotid artery. Then, the internal carotid artery and external carotid artery were separated, the posterior carotid artery, which is a branch of the external carotid artery, and the thyroidea arteria were coagulated and severed, the external carotid artery was ligated at the branch of the lingual artery and maxillary artery, a small puncture was formed in the external carotid artery, 4-0 Nylon suture was passed through the common carotid artery from the puncture, and gradually inserted into the internal carotid artery until there was resistance. The length of the Nylon suture was about 18^˜20 mm from the branch of the common carotid artery. As a result of occluding the middle cerebral artery with Nylon suture, an ischemic state was applied for 2 hours to create a middle cerebral artery occlusion model.
(§3) A cerebral ischemia/reperfusion injury model was established by removing the Nylon suture from the middle cerebral artery of the occlusion model and following reperfusion of blood.
(§4) The first solution was a mixed solution made of sodium chlorite with the concentration of 7.47% and sodium chloride with the concentration of 1.59% with deionized water; the second solution was made of citric acid with the concentration of 16.7% with deionized water. Same volume of solutions were taken out from different vessels with different volumes and mixed up. Allow the solution to mix for 3-5 minutes and dilute it five times with normal saline, and then filter it with 0.22 μm filter membrane of double-deck. The solution was immediately put into injector. The solution was prepared once being used.
(§5) Treatment group (120 rats): A cerebral ischemia/reperfusion injury model was established for the rats already. To administer chlorine dioxide solution everytime that prepared from procedure (3) through carotid artery after the second day the model has established, once a day for total ten days.
On day 5, 6, 12, 13, 19 and 20 after the model established, 50 mg/kg BrdU was injected intraperitoneally into 30 rats in each group. The rats were autopsied on day 7, 14 and 21 after the model established for preparation of frozen brain sections. The presences of NeuN-positive cells by immunochemical stain, glial fibrillory acidic protein (GFAP)-positive cells by immunochemical stain, and BrdU-Positive/GFAP Positive Cells by double-immunofluorescent stain in the SVZ region were analyzed. NeuN is a marker expressed on the immature neurons which are differentiated from neural stem cells. GFAP is a marker expressed on astrocytes which are also differentiated from neural stem cells.
The presence of NeuN-positive cells was analyzed using goat anti-NeuN monoclonal antibody. The presence of GFAP-positive cells was analyzed using goat anti-GFAP polyclonal antibody. The presence of BrdU-positive/GFAP-positive cells was analyzed by double-immunofluorescent stain using a combination of primary antibody of mouse anti-rat BrdU monoclonal antibody and secondary antibody of Rho-labeled rabbit anti-mouse antibody, and a combination of primary antibody of goat anti-GFAP polyclonal antibody and secondary antibody of FITC-labeled rabbit anti-goat antibody.
BRt(%)=(Bt−St)/(Mt−St)×100

[3] = system: cerebral ischemia/reperfusion injury model rats; experiment: Neural function score in cerebral ischemia/reperfusion injury model (Example 3); format: in vivo, Sprague-Dawley rats; conditions: for neural function score (median): n=15, scale 0 normal to 5
Description: as §1, §2, §3, §4, §5
Neural function scores were evaluated once a day after the ischemia/reperfusion injury model established in the 15 rats per group. The scores of neural function disorders were evaluated using the following criteria in compliance with the method of Longa E Z (Longa E Z, et al. Reversible middle cerebral artery occlusion without craniectomy in rats. Stroke 20:84-91, 1989). The results were shown as median.
1: Contralateral limb bending on infarction focus
2: Contralateral limb on infarction focus becomes asthenic state when tail is pulled backward
3: Turning toward opposite side of infarction focus when tail is pulled
4: Spontaneous turning towards opposite side of infarction focus
5: Loss of spontaneous movement

[4] = system: wound of rabbit; conditions: Jin Wei et al. 2011; cited from earlier work
[5] = 12 cases traced for eight months

**Q.** What does the source list for [O][Cl+][O-] [chlorine dioxide solution, chlorine dioxide]?
**A.** cases that recurred once and did not recur after treatment for two times [1, 5]: four; cases that recurred twice and did not recur after the third treatment [1, 5]: two; cases with no recurrence [1, 5]: six; clinical sign and pathological change of tissue after treatment ([1]; 12 chronic eczema patients): became normal; time until stabbing pain and itching disappeared after administration ([1]; 12 chronic eczema patients, NaClO2 8%/NaCl 2% + citric acid 12% 1:1, smeared once a day 10 to 15 days): about half an hour; time until the affected parts scabbed ([1]; 12 chronic eczema patients, topical once a day): two to five days; BRt: GFAP-positive cells in treatment group relative to model group = 100% ([2]; Day 7): 148.4%; number of GFAP-positive cells in the SVZ (mean±SD) ([2]; Day 7, model group 66.3 ± 21.3, sham 2.5 ± 0.15, diluted solution via carotid artery once a day, ten days): 97.2 ± 29.3 No. of cells/mm2; BRt: GFAP-positive cells in treatment group relative to model group = 100% ([2]; Day 14): 134.3%; number of GFAP-positive cells in the SVZ (mean±SD) ([2]; Day 14, model group 58.6 ± 16.5, sham 1.39 ± 0.02): 78.2 ± 19.6 No. of cells/mm2; BRt: GFAP-positive cells in treatment group relative to model group = 100% ([2]; Day 21): 162.4%; number of GFAP-positive cells in the SVZ (mean±SD) ([2]; Day 21, model group 27.9 ± 12.4, sham 0): 45.3 ± 18.3 No. of cells/mm2; presence of NeuN-positive cells (immature neurons) ([2]; treatment group, data not shown): confirmed; presence of BrdU-positive/GFAP-positive cells in the SVZ region ([2]; treatment group, double-immunofluorescent stain, data not shown): confirmed; neural function score (median) ([3]; Day 1, model group 3, NaClO2 7.47% + citric acid 16.7% 1:1 diluted five times, carotid artery once a day for ten days after the second day): 3; neural function score (median) ([3]; Day 2, model group 3, diluted solution via carotid artery once a day for ten days after the second day): 3; neural function score (median) ([3]; Day 3, model group 3, diluted solution via carotid artery once a day for ten days after the second day): 2; neural function score (median) ([3]; Day 4, model group 2, diluted solution via carotid artery once a day for ten days after the second day): 2; neural function score (median) ([3]; Day 5, model group 2, diluted solution via carotid artery once a day for ten days after the second day): 1; neural function score (median) ([3]; Day 6, model group 2, diluted solution via carotid artery once a day for ten days after the second day): 1; neural function score (median) ([3]; Day 7, model group 2, diluted solution via carotid artery once a day for ten days after the second day): 1; neural function score (median) ([3]; Day 8, model group 2, diluted solution via carotid artery once a day for ten days after the second day): 0; neural function score (median) ([3]; Day 9, model group 1, diluted solution via carotid artery once a day for ten days after the second day): 0; neural function score (median) ([3]; Day 10, model group 1, diluted solution via carotid artery once a day for ten days after the second day): 0; neural function score (median) ([3]; Day 11, model group 1, diluted solution via carotid artery once a day for ten days after the second day): 0; neural function score (median) ([3]; Day 12, model group 1, diluted solution via carotid artery once a day for ten days after the second day): 0; neural function score (median) ([3]; Day 13, model group 1, diluted solution via carotid artery once a day for ten days after the second day): 0; neural function score (median) ([3]; Day 14, model group 1, diluted solution via carotid artery once a day for ten days after the second day): 0; neural function score (median) ([3]; Day 15, model group 1, diluted solution via carotid artery once a day for ten days after the second day): 0; neural function score (median) ([3]; Day 16, model group 1, diluted solution via carotid artery once a day for ten days after the second day): 0; neural function score (median) ([3]; Day 17, model group 1, diluted solution via carotid artery once a day for ten days after the second day): 0; neural function score (median) ([3]; Day 18, model group 1, diluted solution via carotid artery once a day for ten days after the second day): 0; neural function score (median) ([3]; Day 19, model group 1, diluted solution via carotid artery once a day for ten days after the second day): 0; neural function score (median) ([3]; Day 20, model group 1, diluted solution via carotid artery once a day for ten days after the second day): 0; neural function score (median) ([3]; Day 21, model group 1, diluted solution via carotid artery once a day for ten days after the second day): 0**; onset of recovery of neural function, treatment group vs model group ([3]; significant particularly on day 7, 8, 9 and 16 after operation): earlier than that in the model group; effect on wound in animal test [4]: speeding haemostasis and promoting healing on wound
